These results are taken from patent US20120135965A1, “AMORPHOUS FOSAMPRENAVIR CALCIUM” (RANBAXY LABORATORIES LIMITED, priority 2009, published 2012).

Molecules are shown by their SMILES. Read-outs that look alike come from different tables or passages of the source. Marks after values point to notes of the source that are not given here.

Series [1] is described as follows: Hygroscopicity according to European Pharmacopoeia 6.0. The series is classed as physicochemical. The settings on record: for Hygroscopicity, % increase in mass: 25 ± 1° C./80 ± 2% RH for 24 h, monocalcium salt.
Series [2] in a line: Aqueous solubility test according to United States Pharmacopeia 32. It counts as physicochemical. The settings on record: for Solubility (mg/ml of solvent) / Parts of solvent required per g of solute / solubility: aqueous; for Solubility (mg/ml of solvent) / solubility: by qualitative observation; for solubility: thermodynamic from solid, read-out: Solubility (mg/ml of solvent).

The nature of series [3]: Storage stability of the amorphous form followed by XRPD. It counts as physicochemical. The settings on record: 40±1° C. at 75±2% RH, two months. The method, then: The XRPD of the samples were determined by using Panalytical X'Pert Pro X-Ray Powder Diffractometer in the range 3 to 40 degree 2 theta with a step size of 0.02 and under tube voltage and current of 45 Kv and 40 mA respectively. Copper radiation of wavelength 1.54 angstrom and Xceletor detector were used.
Fosamprenavir calcium (5 g) was dissolved in methanol (125 ml) at 25° to 30° C. The solution was filtered and fed to a spray dryer (BUCHI, B-290) at feed pump RPM of 1% to 3%. The following parameters were controlled in the spray drying process: • Nozzle Diameter: 0.7 mm • Carrier gas: Nitrogen at 2.0 to 3.0 kg/cm^2 • Air inlet temperature: 80° to 85° C. • Outlet temperature: 35° to 55° C. • Type of atomizer: Two fluid nozzle • The solvent was evaporated at 80° to 85° C. by spray drying. The solid so obtained was collected from the spray dryer and further dried at 55° to 60° C. under vacuum (10 to 15 mmHg) for 10 to 12 hours to obtain the title compound having an XRPD pattern as depicted in FIG. 2.

The conditions of series [4]: Antimicrob. Agents Chemother., 2004, 48(3), 791-798; cited from earlier work.

Consider `CC(C)CN(C[C@@H](OP(=O)([O-])[O-])[C@H](Cc1ccccc1)NC(=O)O[C@H]1CCOC1)S(=O)(=O)c1ccc(N)cc1.[Ca+2]` [Amorphous fosamprenavir calcium, (3S)-tetrahydrofuran-3-yl (1S ,2R)-3-[[(4-aminophenyl)sulfonyl](isobutyl)amino]-1-benzyl-2-(phosphonooxy)propylcarbamate monocalcium salt], for which, in series [1], the Hygroscopicity in words entry is “essentially non-hygroscopic”. The “Hygroscopicity, % increase in mass” value in series [1] is reported as 17.5%. The “Solubility (mg/ml of solvent)” value came out at 1.25 mg/mL in series [2] (pH 1.47, monocalcium salt); 10 mg/mL in series [2] (pH 3.27, monocalcium salt); 6.7 mg/mL in series [2] (pH 5.02, monocalcium salt). Moreover, the “Parts of solvent required per g of solute” value in series [2] (pH 1.47, monocalcium salt) stood at 800 parts; in series [2] (pH 3.27, monocalcium salt), 100 parts; in series [2] (pH 4.11, monocalcium salt) it was 150 parts; in series [2] (pH 5.02, monocalcium salt) it was 150 parts. The solubility worked out at 6.7 mg/mL in series [2] (pH 4.11, aqueous buffer, pH 4.11) and 0.1 mg/mL in series [2] (pH 6.27, aqueous buffer, pH 6.27). The “Volume of aqueous solution required for dissolving about 1 g” value in series [2] (pH of about 3 to about 5.5) is “not more than 200 ml”. The “Solubility compared with crystalline form I of fosamprenavir calcium” value in series [2] (relevant physiological pH range) is given as “superior”. Besides, the “Change in XRPD pattern / conversion into crystalline form on storage” value in series [3] (listed as Example 2, monocalcium salt) is on record as “no change in the XRPD pattern was observed”; in series [3] (monocalcium salt), “not converted into any crystalline form”.
For `CC(C)CN(C[C@@H](OP(=O)([O-])[O-])[C@H](Cc1ccccc1)NC(=O)O[C@H]1CCOC1)S(=O)(=O)c1ccc(N)cc1.[Ca+2]` [calcium salt, (3S)-tetrahydrofuran-3-yl (1S ,2R)-3-[[(4-aminophenyl)sulfonyl](isobutyl)amino]-1-benzyl-2-(phosphonooxy)propylcarbamate monocalcium salt], the “Solubility over the relevant physiological pH range, compared among forms” value in series [4] is reported as “reduced solubility”.
As for `CC(C)CN(C[C@@H](OP(=O)([O-])[O-])[C@H](Cc1ccccc1)NC(=O)O[C@H]1CCOC1)S(=O)(=O)c1ccc(N)cc1.[Ca+2]` [(3S)-tetrahydrofuran-3-yl (1S ,2R)-3-[[(4-aminophenyl)sulfonyl](isobutyl)amino]-1-benzyl-2-(phosphonooxy)propylcarbamate monocalcium salt, reference compound], in series [1] (listed as Crystalline form I), the “Hygroscopicity, % increase in mass” value amounted to 11.62%.
Regarding `CC(C)CN(C[C@@H](OP(=O)([O-])[O-])[C@H](Cc1ccccc1)NC(=O)O[C@H]1CCOC1)S(=O)(=O)c1ccc(N)cc1.[Ca+2]` [Crystalline form I of fosamprenavir calcium] [(3S)-tetrahydrofuran-3-yl (1S ,2R)-3-[[(4-aminophenyl)sulfonyl](isobutyl)amino]-1-benzyl-2-(phosphonooxy)propylcarbamate monocalcium salt, reference compound], the “Solubility (mg/ml of solvent)” value was found to be 0.5 mg/mL in series [2] (pH 1.47); 2.5 mg/mL in series [2] (pH 3.27, monocalcium salt); 4.0 mg/mL in series [2] (pH 4.11, monocalcium salt); 3.3 mg/mL in series [2] (pH 5.02, monocalcium salt). The “Parts of solvent required per g of solute” value is reported as 2100 parts in series [2] (pH 1.47, monocalcium salt); 400 parts in series [2] (pH 3.27, monocalcium salt); 250 parts in series [2] (pH 4.11, monocalcium salt); 300 parts in series [2] (pH 5.02, monocalcium salt); > 10,000** parts in series [2] (pH 6.27, monocalcium salt).
